# Measured values as given in patent publication US20260137819A1 (Radionetics Oncology, Inc., priority 2022, published 2026).
# Target: T1, human follicle-stimulating hormone receptor (FSHR) (Homo sapiens, UniProt P23945)
# T1 construct: host or cells: CHO-K1
# T1 sequence (P23945 18-695): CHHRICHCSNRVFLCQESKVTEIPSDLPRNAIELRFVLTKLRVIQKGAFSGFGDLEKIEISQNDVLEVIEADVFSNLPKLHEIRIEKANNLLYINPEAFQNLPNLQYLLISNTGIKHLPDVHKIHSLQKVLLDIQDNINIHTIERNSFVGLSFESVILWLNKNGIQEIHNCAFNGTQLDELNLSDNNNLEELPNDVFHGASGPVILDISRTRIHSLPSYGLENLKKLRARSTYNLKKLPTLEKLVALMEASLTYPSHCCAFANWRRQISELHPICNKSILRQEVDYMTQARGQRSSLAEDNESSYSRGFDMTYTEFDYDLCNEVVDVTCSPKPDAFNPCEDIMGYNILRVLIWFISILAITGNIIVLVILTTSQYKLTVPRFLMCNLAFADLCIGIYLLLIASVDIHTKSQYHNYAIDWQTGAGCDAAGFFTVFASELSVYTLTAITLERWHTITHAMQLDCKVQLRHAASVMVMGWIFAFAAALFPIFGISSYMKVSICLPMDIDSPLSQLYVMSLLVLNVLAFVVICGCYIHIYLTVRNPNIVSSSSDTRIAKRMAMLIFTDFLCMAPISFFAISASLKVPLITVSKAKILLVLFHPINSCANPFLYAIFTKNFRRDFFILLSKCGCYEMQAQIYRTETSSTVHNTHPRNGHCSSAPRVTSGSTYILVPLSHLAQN
# Experiment: Measurement of agonist cAMP production by activation of human FSHR
# Format: cell-based
# Conditions: CHO-K1 human FSHR cells, 30 minutes at 37° C., HTRF cAMP kit; read-out: hFSHR Agonist cAMP EC50
# Description: Measurement of agonist cAMP production by activation of human FSHR
# Two days prior to the assay, 5,000 CHO—K1 human FSHR cells (Eurofins #95-0119C2) stably expressing the functional human follicle-stimulating hormone receptor were plated in a 96-well tissue culture-treated plate in growth media supplemented with the appropriate selection agent. […] The cells were incubated for 30 minutes at 37° C. (the final concentrations of the compound ranged from 0-10,000 nM). After the 30-minute incubation at 37° C., lysis buffer (HRTF CAMP kit, Cisbio #62AM5PEB)w as added directly to the cells and incubated for 30-minutes at room temperature. The diluted lysate was transferred and CAMP detection and visualization antibodies (HRTF CAMP kit, Cisbio #62AM5PEB) were added and incubated for 1-24 hours at room temperature. The time-resolved fluorescent signal was read with a Tecan M1000Pro (Tecan) multiplate reader. The intracellular cAMP concentrations were calculated by regression to a standard curve and were plotted vs. the concentration of the agonists. The concentration of test compound or FSH required to generate a half maximal response EC50 were calculated using standard curve-fitting methods. All data manipulations were performed using GraphPad Prism v9.3.1 (GraphPad, San Diego, CA).
row,EC50,SMILES
1,0.01 to 0.1 µM,"COc1cc2c(cc1-c1cccc(NC(=O)CCOCCOCCOCCNC(=O)CN3CCN(CC(=O)O)CCN(CC(=O)O)CCN(CC(=O)O)CC3)c1)-c1c(c(C(=O)N3CCOCC3(C)C)nn1-c1cc(Cl)cc(Cl)c1)CO2 [Compound 18, 2,2′,2″-(10-(15-((3-(1-(3,5-dichlorophenyl)-3-(3,3-dimethylmorpholine-4-carbonyl)-7-methoxy-1,4-dihydrochromeno|4,3-c|pyrazol-8-yl)phenyl)amino)-2,15-dioxo-6,9,12-trioxa-3-azapentadecyl)-1,4,7,10-tetraazacyclododecane-1,4,7-triyl)triacetic acid]"
2,< 0.01 µM,COc1cc2c(cc1-c1cccc(NC(=O)CCOCCOCCOCCNC(=O)CN3CCN(CC(=O)O)CCN(CC(=O)O)CCN(CC(=O)O)CC3)c1)-c1c(c(C(=O)N3CCOCC3(C)C)nn1-c1cc(Cl)cc(Cl)c1)CO2 [Compound 18A]
3,< 0.01 µM,"COc1cc2c(cc1-c1cccc(NC(=O)CCOCCOCCNC(=O)CN3CCN(CC(=O)O)CCN(CC(=O)O)CCN(CC(=O)O)CC3)c1)-c1c(c(C(=O)N3CCOCC3(C)C)nn1-c1cc(Cl)cc(Cl)c1)CO2 [Compound 19, 2,2′,2″-(10-(2-((2-(2-(3-((3-(1-(3,5-dichlorophenyl)-3-(3,3-dimethylmorpholine-4-carbonyl)-7-methoxy-1,4-dihydrochromeno[4,3-c]pyrazol-8-yl)phenyl)amino)-3-oxopropoxy)ethoxy)ethyl)amino)-2-oxoethyl)-1,4,7,10-tetraazacyclododecane-1,4,7-triyl)triacetic acid]"
4,< 0.01 µM,"COc1cc2c(cc1-c1cccc(NC(=O)CCOCCNC(=O)CN3CCN(CC(=O)O)CCN(CC(=O)O)CCN(CC(=O)O)CC3)c1)-c1c(c(C(=O)N3CCOCC3(C)C)nn1-c1cc(Cl)cc(Cl)c1)CO2 [Compound 20, 2,2′,2″-(10-(2-((2-(3-((3-(1-(3,5-dichlorophenyl)-3-(3,3-dimethylmorpholine-4-carbonyl)-7-methoxy-1,4-dihydrochromeno[4,3-c]pyrazol-8-yl)phenyl)amino)-3-oxopropoxy)ethyl)amino)-2-oxoethyl)-1,4,7,10-tetraazacyclododecane-1,4,7-triyl)triacetic acid]"
5,< 0.01 µM,"COc1cc2c(cc1-c1cccc(NC(=O)CCOCCOCCNC(=O)C3OC(CNC(=O)CN4CCN(CC(=O)O)CCN(CC(=O)O)CCN(CC(=O)O)CC4)C(O)C(O)C3O)c1)-c1c(c(C(=O)N3CCOCC3(C)C)nn1-c1cc(Cl)cc(Cl)c1)CO2 [Compound 21, 2,2′,2″-(10-(2-((((2S,3R,4R,5R,6S)-6-((2-(2-(3-((3-(1-(3,5-dichlorophenyl)-3-(3,3-dimethylmorpholine-4-carbonyl)-7-methoxy-1,4-dihydrochromeno|4,3-clpyrazol-8-yl)phenyl)amino)-3-oxopropoxy)ethoxy)ethyl)carbamoyl)-3,4,5-trihydroxytetrahydro-2H-pyran-2-yl)methyl)amino)-2-oxoethyl)-1,4,7,10-tetraazacyclododecane-1,4,7-triyl)triacetic acid]"
6,< 0.01 µM,COc1cc2c(cc1-c1cccc(NC(=O)CN(C)C(=O)CN(C)C(=O)CN(C)C(=O)CN(C)C(=O)CN(C)C(=O)CCNC(=O)CN3CCN(CC(=O)O)CCN(CC(=O)O)CCN(CC(=O)O)CC3)c1)-c1c(c(C(=O)N3CCOCC3(C)C)nn1-c1cc(Cl)cc(Cl)c1)CO2 [Compound 22]
7,0.01 to 0.1 µM,"COc1cc2c(cc1-c1cccc(NC(=O)NCCNC(=O)[C@H](N)CCCCNC(=O)CN3CCN(CC(=O)O)CCN(CC(=O)O)CCN(CC(=O)O)CC3)c1)-c1c(c(C(=O)N3CCOCC3(C)C)nn1-c1cc(Cl)cc(Cl)c1)CO2 [Compound 23A, indium (III) (R)-2,2′,2″-(10-(2-((5-amino-6-((2-(3-(3-(1-(3,5-dichlorophenyl)-3-(3,3-dimethylmorpholine-4-carbonyl)-7-methoxy-1,4-dihydrochromeno[4,3-c]pyrazol-8-yl)phenyl)ureido)ethyl)amino)-6-oxohexyl)amino)-2-oxoethyl)-1,4,7,10-tetraazacyclododecane-1,4,7-triyl)triacetate]"
8,< 0.01 µM,COc1cc2c(cc1-c1cccc(NC(=O)NCCNC(=O)[C@H](N)CCCCNC(=O)CN3CCN(CC(=O)O)CCN(CC(=O)O)CCN(CC(=O)O)CC3)c1)-c1c(c(C(=O)N3CCOCC3(C)C)nn1-c1cc(Cl)cc(Cl)c1)CO2 [Compound 23]
9,0.01 to 0.1 µM,"COc1cc2c(cc1-c1cccc(NC(=O)NCCNc3c(NCCNC(=O)CN4CCN(CC(=O)O)CCN(CC(=O)O)CCN(CC(=O)O)CC4)c(=O)c3=O)c1)-c1c(c(C(=O)N3CCOCC3(C)C)nn1-c1cc(Cl)cc(Cl)c1)CO2 [Compound 24, 2,2′,2″-(10-(2-((2-((2-((2-(3-(3-(1-(3,5-dichlorophenyl)-3-(3,3-dimethylmorpholine-4-carbonyl)-7-methoxy-1,4-dihydrochromeno|4,3-c|pyrazol-8-yl)phenyl)ureido)ethyl)amino)-3,4-dioxocyclobut-1-en-1-yl)amino)ethyl)amino)-2-oxoethyl)-1,4,7,10-tetraazacyclododecane-1,4,7-triyl)triacetic acid]"
10,< 0.01 µM,"COc1cc2c(cc1-c1cccc(NC(=O)NCCNc3c(NCCNC(=O)CN4CCN(CC(=O)O)CCN(CC(=O)O)CCN(CC(=O)O)CC4)c(=O)c3=O)c1)-c1c(c(C(=O)N3CCOCC3(C)C)nn1-c1cc(Cl)cc(Cl)c1)CO2 [Compound 24A, indium (III) 2,2′,2″-(10-(2-((2-((2-((2-(3-(3-(1-(3,5-dichlorophenyl)-3-(3,3-dimethylmorpholine-4-carbonyl)-7-methoxy-1,4-dihydrochromeno[4,3-c]pyrazol-8-yl)phenyl)ureido)ethyl)amino)-3,4-dioxocyclobut-1-en-1-yl)amino)ethyl)amino)-2-oxoethyl)-1,4,7,10-tetraazacyclododecane-1,4,7-triyl)triacetate]"
11,> 0.1 µM,"COCCOCCOCCOCCOCCOCCC(=O)N[C@H](CC(=O)N1CC2(CCCN2C(=O)CNC(=O)CN2CCN(CC(=O)O)CCN(CC(=O)O)CCN(CC(=O)O)CC2)C1)C(=O)Nc1cccc(-c2cc3c(cc2OC)OCc2c(C(=O)N4CCOCC4(C)C)nn(-c4cc(Cl)cc(Cl)c4)c2-3)c1 [Compound 25, (R)-2,2′,2″-(10-(2-((2-(2-(22-((3-(1-(3,5-dichlorophenyl)-3-(3,3-dimethylmorpholine-4-carbonyl)-7-methoxy-1,4-dihydrochromeno[4,3-c]pyrazol-8-yl)phenyl)carbamoyl)-20-oxo-2,5,8,11,14,17-hexaoxa-21-azatetracosan-24-oyl)-2,5-diazaspiro[3.4]octan-5-yl)-2-oxoethyl)amino)-2-oxoethyl)-1,4,7,10-tetraazacyclododecane-1,4,7-triyl)triacetic acid]"
12,< 0.01 µM,"COc1cc2c(cc1-c1cccc(NC(=O)CCOCCOCCOCCOCCNC(=O)[C@@H](CS(=O)(=O)O)NC(=O)CN3CCN(CC(=O)O)CCN(CC(=O)O)CCN(CC(=O)O)CC3)c1)-c1c(c(C(=O)N3CCOCC3(C)C)nn1-c1cc(Cl)cc(Cl)c1)CO2 [Compound 26, (S)-2,2′,2″-(10-(21-((3-(1-(3,5-dichlorophenyl)-3-(3,3-dimethylmorpholine-4-carbonyl)-7-methoxy-1,4-dihydrochromeno[4,3-c]pyrazol-8-yl)phenyl)amino)-2,5,21-trioxo-4-(sulfomethyl)-9,12,15,18-tetraoxa-3,6-diazahenicosyl)-1,4,7,10-tetraazacyclododecane-1,4,7-triyl)triacetic acid]"
13,< 0.01 µM,"COc1cc2c(cc1-c1cccc(NC(=O)CCOCCOCCOCCOCCNC(=O)[C@H](CS(=O)(=O)O)NC(=O)CN3CCN(CC(=O)O)CCN(CC(=O)O)CCN(CC(=O)O)CC3)c1)-c1c(c(C(=O)N3CCOCC3(C)C)nn1-c1cc(Cl)cc(Cl)c1)CO2 [Compound 26A, indium (III) (R)-2,2′,2″-(10-(21-((3-(1-(3,5-dichlorophenyl)-3-(3,3-dimethylmorpholine-4-carbonyl)-7-methoxy-1,4-dihydrochromeno[4,3-c]pyrazol-8-yl)phenyl)amino)-2,5,21-trioxo-4-(sulfomethyl)-9,12,15, 18-tetraoxa-3,6-diazahenicosyl)-1,4,7,10-tetraazacyclododecane-1,4,7-triyl)triacetate]"

# Same assay, conditions: hFSHR Agonist cAMP EC50, CHO-K1 human FSHR cells, 30 minutes at 37° C., HTRF cAMP kit
row,SMILES,EC50
1,COc1cc2c(cc1-c1cccc(NC(=O)CCOCCOCCOCCOCCNC(=O)CN3CCN(CC(=O)O)CCN(CC(=O)O)CCN(CC(=O)O)CC3)c1)-c1c(c(C(=O)N3CCOCC3(C)C)nn1-c1cc(Cl)cc(Cl)c1)CO2 [Compound 17B],< 0.01 µM
